Data as given in patent US8450494B2, “Disubstituted benzamide derivatives as glucokinase (GK) activators” (Cadila Healthcare Limited, priority 2010, dated 2013).
pEC50: −log10 of the molar value.

Biological target: T1, glucokinase (GK) enzyme (Homo sapiens, UniProt P35557)
T1 sequence (P35557 1-465): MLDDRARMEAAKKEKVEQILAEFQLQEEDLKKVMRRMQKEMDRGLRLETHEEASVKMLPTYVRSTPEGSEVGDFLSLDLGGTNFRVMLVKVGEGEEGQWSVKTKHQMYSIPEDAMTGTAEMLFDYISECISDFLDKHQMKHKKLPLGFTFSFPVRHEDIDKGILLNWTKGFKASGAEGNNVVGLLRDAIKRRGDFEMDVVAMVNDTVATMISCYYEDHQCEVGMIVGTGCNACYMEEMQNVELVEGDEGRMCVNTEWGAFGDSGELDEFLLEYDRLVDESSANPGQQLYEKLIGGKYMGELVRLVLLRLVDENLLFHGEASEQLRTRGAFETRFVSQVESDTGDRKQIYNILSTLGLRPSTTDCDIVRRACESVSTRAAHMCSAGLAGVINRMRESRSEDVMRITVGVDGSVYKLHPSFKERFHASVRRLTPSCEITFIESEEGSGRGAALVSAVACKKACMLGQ
Test: In-vitro glucokinase (GK) enzyme activation assay (coupled with glucose-6-phosphate dehydrogenase, absorbance at 340)
Assay type: biochemical
Conditions: glucose 2.5 mM, ATP 1 mM; for activity at 0.1 µM / activity at 1 µM / activity at 5 µM / activity at 10 µM: read-out: % of GK activity wrt DMSO; for pEC50: GK activation
Experimental: The compound of the invention was incubated with glucokinase (GK) enzyme (0.2 units) for 10 minutes in assay buffer at 26° C. After incubation, addition of glucose-6-phosphate dehydrogenase (2.5 units), ATP (1 mM) and glucose (2.5 mM). Absorbance is measured at 340 nm for 15 minutes with 10 second interval using UV transparent plate in kinetic mode on Spectramax-190 at 30° C.

SMILES	activity at 0.1 µM (compound 0.1 uM)	activity at 1 µM (compound 1 uM)	activity at 5 µM (compound 5 uM)	activity at 10 µM (compound 10 uM)	pEC50	% of GK activity wrt DMSO (compound 0.1 uM)	% of GK activity wrt DMSO (compound 1 uM)	% of GK activity wrt DMSO (compound 5 uM)	% of GK activity wrt DMSO (compound 10 uM)
COCC(C)Oc1cc(Oc2ccc(-c3nnc(C)o3)cc2)cc(C(=O)Nc2ncc(Br)s2)c1 (stereo not shown) [Example 2.36, N-(5-Bromothiazol-2-yl)-3-((1-methoxypropan-2-yl)oxy)-5-(4-(5-methyl-1,3,4-oxadiazol-2-yl)phenoxy)benzamide]	210%	271%	316%	302%	–	–	–	–	–
CCOC(=O)Cc1csc(NC(=O)c2cc(Oc3ccc(-c4nnc(C)o4)cc3)cc(OC(C)COC)c2)n1 (stereo not shown) [Example 2.7, Ethyl 2-(2-(3-((1-methoxypropan-2-yl)oxy)-5-(4-(5-methyl-1,3,4-oxadiazol-2-yl)phenoxy)benzamido)thiazol-4-yl)acetate]	288%	349%	353%	345%	–	–	–	–	–
CCOC(=O)c1cnc(NC(=O)c2cc(Oc3ccc(-c4nnc(C)o4)cc3)cc(OC(C)COC)c2)s1 (stereo not shown) [Example 2.16, Ethyl 2-{3-[(1-methoxypropan-2-yl)oxy]-5-[4-(5-methyl-1,3,4-oxadiazol-2-yl)phenoxy]benzamido}thiazole-5-carboxylate]	101%	144%	201%	205%	–	–	–	–	–
Cc1csc(NC(=O)c2cc(OCC3CCCCC3)cc(Oc3ccc(-c4nnc(C)o4)cc3)c2)n1 [Example 2.3, 3-(Cyclohexylmethoxy)-5-(4-(5-methyl-1,3,4-oxadiazol-2-yl)phenoxy)-N-(4-methylthiazol-2-yl)benzamide]	123%	137%	148%	150%	–	–	–	–	–
C=CCCOc1cc(Oc2ccc(-c3nnc(C)o3)cc2)cc(C(=O)Nc2nccs2)c1 [Example 1.2, 3-(But-3-enyloxy)-5-(4-(5-methyl-1,3,4-oxadiazol-2-yl)phenoxy)-N-(thiazol-2-yl)benzamide]	167%	229%	242%	244%	7.09	–	–	–	–
COCC(C)Oc1cc(Oc2ccc(-c3nnc(C)o3)cc2)cc(C(=O)Nc2nccs2)c1 (stereo not shown) [Example 1.1, 3-(1-Methoxypropan-2-yloxy)-5-(4-(5-methyl-1,3,4-oxadiazol-2-yl)phenoxy)-N-(thiazol-2-yl)benzamide]	276%	309%	316%	309%	7.68	–	–	–	–
Cc1nnc(-c2ccc(Oc3cc(OCC(C)C)cc(C(=O)Nc4nccs4)c3)cc2)o1 [Example 2.5, 3-Isobutoxy-5-(4-(5-methyl-1,3,4-oxadiazol-2-yl)phenoxy)-N-(thiazol-2-yl)benzamide]	195%	256%	282%	278%	6.99	–	–	–	–
Cc1nnc(-c2ccc(Oc3cc(OCC45CC6CC(CC(C6)C4)C5)cc(C(=O)Nc4nccs4)c3)cc2)o1 [Example 1.9, 3-(4-(5-Methyl-1,3,4-oxadiazol-2-yl)phenoxy)-5-(admantanemethoxy)-N-(thiazol-2-yl)benzamide]	–	–	–	–	–	121.83%	137.7%	141.3%	153.4%
COCC(C)Oc1cc(Oc2ccc(-c3nnc(C)o3)cc2)cc(C(=O)Nc2nc(CC(=O)O)cs2)c1 (stereo not shown) [Example 2.8]	–	–	–	–	–	239.5%	323.6%	336.3%	328.9%
COC(C)CCOc1cc(Oc2ccc(-c3nnc(C)o3)cc2)cc(C(=O)Nc2nccs2)c1 (stereo not shown) [Example 1.7, 3-(3-Methoxybutoxy)-5-(4-(5-methyl-1,3,4-oxadiazol-2-yl)phenoxy)-N-(thiazol-2-yl)benzamide]	164%	228%	245%	236%	–	–	–	–	–
COCC(C)Oc1cc(Oc2cccc(-c3nnc(C)o3)c2)cc(C(=O)Nc2nccs2)c1 (stereo not shown) [Example 2.21, 3-((1-Methoxypropan-2-yl)oxy)-5-(3-(5-methyl-1,3,4-oxadiazol-2-yl)phenoxy)-N-(thiazole-2-yl)benzamide]	179%	287%	318%	293%	–	–	–	–	–
Cc1nnc(-c2ccc(Oc3cc(OCC4CCC5(CC5)C4)cc(C(=O)Nc4nccs4)c3)cc2)o1 (stereo not shown) [Example 1.6, 3-(4-(5-Methyl-1,3,4-oxadiazol-2-yl)phenoxy)-5-(spiro[2.4]heptan-5-ylmethoxy)-N-(thiazol-2-yl)benzamide]	134%	178%	183%	165%	–	–	–	–	–
COCC(C)Oc1cc(Oc2ccc(-c3nnc(C4CCCC4)o3)cc2)cc(C(=O)Nc2nccs2)c1 (stereo not shown) [Example 2.31]	–	–	–	–	–	252.3%	433.6%	518.5%	470.8%
